Assay results as given in US11130762B2, “Azaaryl derivative, preparation method therefor, and application thereof for use in pharmacy” (Abbisko Therapeutics Co., Ltd., priority 2017, dated 2021).

Molecular target: KIT kinase (Homo sapiens, UniProt P10721)
Test: KIT in vitro biochemical kinase study (Caliper EZ Reader)
Details: Caliper mobility shift; read-out: Enzymatic experiment KIT IC50
Procedure: B. KIT/PDGFRA In Vitro Biochemical Kinase Study
1. Preparation of 1-Fold Kinase Buffer and Stop Solution
1.2 stop solution: 100 mM HEPES, pH 7.5, 0.015% Brij-35, 0.2% Coating Reagent #3, 50 mM EDTA
2. Preparation of Compound Solution
2.1 Dilution of Compound Solution
1) The final concentration of the compound solution was 40 μM, and the concentration of the prepared stock solution was 50 times of the final concentration, i.e., 2 mM.
2) 80 μL of 100% DMSO was added to the second well of the 96-well plate, then 20 μL of 10 mM compound solution was added, and thereby 2 mM compound solution was prepared, 60 μL of 100% DMSO was added to other wells, 20 μL of compound was taken from the second well, added to the third well and diluted by 4 times. This serial 4-time dilution was conducted in sequence for the total of 10 concentrations.
2.2 5-Fold Compound Solution Transferred to a Reaction Plate
1) 10 μL of solution was taken from each well of the above 96-well plate and added to another 96-well plate, and 90 μL of kinase buffer was added.
2) 5 μL of solution was taken from the above 96-well plate and added to a 384-well reaction plate.
1) KIT/PDGFRA kinase was added to the 1-fold kinase buffer solution to obtain a 2.5-fold kinase solution.
2) FAM-labeled polypeptide and ATP were added to the 1-fold kinase buffer solution to obtain a 2.5-fold substrate solution.
3) 10 μL of 2.5-fold kinase solution was added to the 384-well reaction plate, which already contained 5 μL of 5-fold compound in 10% DMSO. And the mixed solution was incubated at room temperature for 10 min.
4) 10 μL of 2.5-fold substrate solution was added to the 384-well reaction plate.
5) Kinase reaction and termination: the mixed solution was incubated at 28° C. for a certain period of time, and 25 μL of stop solution was added to stop the reaction.
2.4 Data Reading of Caliper EZ Reader II
2.5 Calculation of Percent Inhibition and IC50
1) Percent conversion data were copied from the Caliper EZ Reader. […]

KIT kinase, sequence (P10721 26-976): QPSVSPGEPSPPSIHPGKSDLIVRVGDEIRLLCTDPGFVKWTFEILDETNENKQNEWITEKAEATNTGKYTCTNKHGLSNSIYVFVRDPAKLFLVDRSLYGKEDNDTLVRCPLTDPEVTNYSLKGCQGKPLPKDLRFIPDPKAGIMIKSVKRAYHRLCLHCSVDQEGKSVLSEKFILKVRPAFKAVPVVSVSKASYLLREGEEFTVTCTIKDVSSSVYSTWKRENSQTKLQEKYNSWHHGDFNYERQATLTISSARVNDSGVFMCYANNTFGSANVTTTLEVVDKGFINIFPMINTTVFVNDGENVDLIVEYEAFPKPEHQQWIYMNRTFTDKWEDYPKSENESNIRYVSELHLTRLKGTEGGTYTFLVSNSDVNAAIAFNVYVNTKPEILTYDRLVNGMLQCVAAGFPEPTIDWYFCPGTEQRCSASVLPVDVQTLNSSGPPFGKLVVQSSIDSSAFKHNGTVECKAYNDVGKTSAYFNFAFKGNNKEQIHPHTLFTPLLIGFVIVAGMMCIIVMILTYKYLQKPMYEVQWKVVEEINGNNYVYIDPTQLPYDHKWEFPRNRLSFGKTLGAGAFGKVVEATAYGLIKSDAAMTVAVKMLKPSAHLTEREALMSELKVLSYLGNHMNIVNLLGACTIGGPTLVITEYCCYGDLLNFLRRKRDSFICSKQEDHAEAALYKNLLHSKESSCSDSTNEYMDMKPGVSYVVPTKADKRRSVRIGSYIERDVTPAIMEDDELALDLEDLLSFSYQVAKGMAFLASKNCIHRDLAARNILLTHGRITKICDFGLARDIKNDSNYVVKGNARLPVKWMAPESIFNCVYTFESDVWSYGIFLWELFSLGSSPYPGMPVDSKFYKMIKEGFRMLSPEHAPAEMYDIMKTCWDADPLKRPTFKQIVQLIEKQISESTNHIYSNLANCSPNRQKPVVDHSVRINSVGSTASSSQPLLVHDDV

| Structure (SMILES) | IC50 [nM] |
| --- | --- |
| Cc1nc(-c2cnc3n(c2=O)CCCN3C)ccc1Oc1ccnc(-c2cnn(C)c2)c1 [Example 1, 9-methyl-3-(6-methyl-5-((2-(1-methyl-1H-pyrazol-4-yl)pyridin-4-yl)oxy)pyridin-2-yl)-6,7,8,9-tetrahydro-4H-pyrimido[1,2-a]pyrimidin-4-one] | 365 |
| CCN1CCCn2c1ncc(-c1ccc(Oc3ccnc(-c4cnn(C)c4)c3)c(C)n1)c2=O [Example 4] | 20.5 |
